# Measured values reported in US20100196512A1, “Treatment of Non-Oral Biological Tissue with Chlorine Dioxide” (priority 2009, published 2010).
# Key:
# [1] = test system: mixed PA/MRSA biofilm (total bacteria); assay: Kill of mixed PA/MRSA biofilm grown on ceramic disks by chlorine dioxide solution; assay type: cell-based, Staphylococcus aureus and Pseudomonas aeruginosa; conditions: for Log Reduction in Organism Count: MRSA + PA biofilm, total bacteria
# Source text: (§1) Chlorine dioxide treatment involves exposing micro-organisms to chlorine dioxide for a period of time. Treatment conditions, often called the “dose or dosage” of chlorine dioxide, can be determined by calculating the integral of the chlorine dioxide concentration as a function of time, C(t), over the treatment time of use:
# (§2) In systems where the chlorine dioxide concentration is generally constant over the treatment time (e.g., varies by less than ±10% relative) or varies linearly over the treatment time, an average chlorine dioxide concentration may be calculated by averaging the starting and ending concentrations and then multiplying that average chlorine dioxide concentration during an exposure period by the time of exposure (Average Concentration X Time). Dose is commonly given in units of ppm-minutes.
# (§3) A series of experiments were conducted to estimate the dose of chlorine dioxide needed to kill bacterial biofilms consisting of Pseudomonas aeruginosa (PA), methicillin resistant Staphylococcus aureus (MRSA), or a combination of both.
# (§4) Bacterial biofilms were grown for between 7 and 10 days on non-porous ceramic disks in a spinning disk biofilm reactor. The reactors were inoculated with PA, MRSA, or a mixture of MRSA and PA bacteria to produce PA, MRSA, or mixed PA/MRSA biofilms respectively.
# (§5) Chlorine dioxide solutions were produced at different nominal concentrations using ASEPTROL® S-Tab 10 tablets, and the exact concentrations were then measured using a Hach Model 2400 UV/Vis spectrophotometer in accordance with the manufacturer's instructions. Pairs of biofilm-containing disks were immersed for different times in solutions of different chlorine dioxide concentrations, neutralized with dilute sodium thiosulfate solution, and then plated to determine the number of surviving bacteria on each disk. Two untreated disks were also exposed to neutralizing solution and plated to determine the starting bacterial counts. In all tests, the baseline bacterial counts were in the range of 10^7 to 10^7.5 colony-forming units per disk (cfu/disk). A one log reduction refers to reducing the cfu/disk by one order of magnitude, e.g., a reduction from 10^7.1 cfu/disk to 10^6.1 cfu/disk. Accordingly, a substantially complete kill is achieved if the log reduction of bacteria is about 7 to 7.5.
# (§6) The table summarizes the test conditions used in the different experiments, and presents the results in terms of log reduction of the different bacterial organisms. In the case of mixed PA/MRSA biofilms, results are given as total bacteria.
# [2] = test system: methicillin resistant Staphylococcus aureus (MRSA) biofilm; assay: Kill of MRSA biofilm grown on ceramic disks by chlorine dioxide solution; assay type: cell-based
# Source text: as §1, §2, §3, §4, §5, §6
# [3] = test system: Pseudomonas aeruginosa (PA) biofilm; assay: Kill of PA biofilm grown on ceramic disks by chlorine dioxide solution; assay type: cell-based
# Source text: as §1, §2, §3, §4, §5, §6
smiles,measurement,setting,value
"[O][Cl+][O-] [ClO2, chlorine dioxide]",Log Reduction in Organism Count,"[1]; Sample 12, exposure 10.0 minutes, ClO2 52 ppm, 520 ppm-min",5.5
same,Log Reduction in Organism Count,"[1]; Sample 13, exposure 30.0 minutes, ClO2 52 ppm, 1560 ppm-min",7.4
same,Log Reduction in Organism Count,"[1]; Sample 14, exposure 1.0 minutes, ClO2 181 ppm, 181 ppm-min",5.1
same,Log Reduction in Organism Count,"[1]; Sample 15, exposure 5.0 minutes, ClO2 160 ppm, 800 ppm-min",7.4
same,Log Reduction in Organism Count,"[1]; Sample 16, exposure 30.0 minutes, ClO2 160 ppm, 4800 ppm-min",7.4
same,dose for a kill of about 5 orders of magnitude (5 log),"[1]; mixed PA/MRSA biofilm, see Sample 12",greater than 200 ppm-min
same,Log Reduction in Organism Count,"[2]; Sample 1, exposure 1.0 minutes, ClO2 208 ppm, 208 ppm-min",5.5
same,Log Reduction in Organism Count,"[2]; Sample 2, exposure 5.0 minutes, ClO2 204 ppm, 1020 ppm-min",7.1
same,Log Reduction in Organism Count,"[2]; Sample 3 (second line), exposure 30.0 minutes, ClO2 40 ppm, 1200 ppm-min",5.1
same,Log Reduction in Organism Count,"[2]; Sample 3, exposure 10.0 minutes, ClO2 45 ppm, 450 ppm-min",5.5
same,Log Reduction in Organism Count,"[2]; Sample 4, exposure 30.0 minutes, ClO2 175 ppm, 5250 ppm-min",7.1
same,dose for a kill of about 5 orders of magnitude (5 log),[2]; see Sample 1,greater than 200 ppm-min
same,Log Reduction in Organism Count,"[3]; Sample 6, exposure 0.5 minutes, ClO2 200 ppm, 100 ppm-min",5.9
same,Log Reduction in Organism Count,"[3]; Sample 7, exposure 5.0 minutes, ClO2 43 ppm, […]-min",5.7
same,Log Reduction in Organism Count,"[3]; Sample 8, exposure 5.0 minutes, ClO2 187 ppm, 935 ppm-min",7.5
same,Log Reduction in Organism Count,"[3]; Sample 9, exposure 10.0 minutes, ClO2 37 ppm, 370 ppm-min",7.5
same,Log Reduction in Organism Count,"[3]; Sample 10, exposure 50.0 minutes, ClO2 35 ppm, 1750 ppm-min",7.5
same,Log Reduction in Organism Count,"[3]; Sample 11, exposure 50.0 minutes, ClO2 166 ppm, 8300 ppm-min",7.5
same,dose for a kill of about 5 orders of magnitude (5 log),[3]; see Sample 7,greater than 200 ppm-min
